From US12234227B2, “Pyrazole derivatives as H4 antagonist compounds” (NXERA PHARMA UK LIMITED, priority 2018, dated 2025) come the findings set out here.

Usually inhibition stands for the drop in the measured response relative to a control, in per cent. A lower inhibition goes with a weak effect. As a reminder, the IC50 is the concentration at which inhibition is half-maximal.

SMILES strings stand for the structures. Counter-ions that a name gives are not always drawn.

One data set addresses hERG (Homo sapiens, UniProt Q12809). Description: hERG Assay (QPatch automated patch clamp; single-concentration assay at 30 μM and pIC50 assay). As to conditions: for inhibition at 30 µM: human, CHO cells stably expressing hERG. On the technique in general: hERG is a cardiac potassium channel; its block is linked to QT prolongation.
The target in a further data set is T1, human H4 receptor (Homo sapiens, UniProt Q9H3N8).
T1 construct: expressed in transfected cells; host or cells: HEKf cells transduced with baculovirus
The experiment in a line: H4 Antagonist Functional cAMP Gi Assay. As to conditions: H4 antagonist activity; for Kb: read-out: Human H4 CAMP fpKb (converted). In kind it is cell-based. As to the method: H4 Antagonist Functional cAMP Gi Assay
HEKf cells were infected overnight using baculovirus expressing the human H4 receptor, then centrifuged at 1,200 rpm for 5 min, frozen in cell freezing medium (Sigma) and stored at −150° C. On the day of assay, the cells were thawed and resuspended in HBSS with 500 nM IBMX to achieve a density of 1,500 cells/well. H4 ligands were prepared in DMSO and stamped by LabCyte ECHO acoustic dispensing at 25 nL in low volume plates. 10 μL/well cells were plated in the presence of 1 μM forskolin, subjected to centrifugation at 1,200 rpm for 1 min and incubated for 30 min prior to addition of Cisbio cAMP detection reagents to a total volume 20 μL/well. For the antagonist assay, cells were pre-incubated with H4 antagonist ligands for 30 min prior to addition of EC80 concentration of histamine and a further 30 min incubation. Following detection reagent addition and shaking at room temperature for 60 min, cAMP accumulation was measured using HTRF on a PheraStar plate reader. EC50 values were generated using a 4-parameter logistical fit equation to quantify agonist potencies. Functional antagonist affinity values were generated using the Cheng-Prusoff equation to calculate a pKb value using the antagonist assay data.

T1 sequence (Q9H3N8 whole entry): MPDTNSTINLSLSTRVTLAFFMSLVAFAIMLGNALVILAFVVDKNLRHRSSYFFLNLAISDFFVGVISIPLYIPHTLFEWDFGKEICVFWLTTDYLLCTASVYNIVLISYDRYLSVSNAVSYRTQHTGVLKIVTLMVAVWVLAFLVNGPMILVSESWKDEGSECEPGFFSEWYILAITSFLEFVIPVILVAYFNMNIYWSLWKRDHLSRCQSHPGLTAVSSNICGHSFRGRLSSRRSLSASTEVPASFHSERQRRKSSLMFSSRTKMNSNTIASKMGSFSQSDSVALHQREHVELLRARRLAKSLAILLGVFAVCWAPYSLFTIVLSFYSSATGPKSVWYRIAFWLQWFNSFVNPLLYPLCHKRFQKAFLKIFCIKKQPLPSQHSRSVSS
Chain of hERG (Q12809 whole entry): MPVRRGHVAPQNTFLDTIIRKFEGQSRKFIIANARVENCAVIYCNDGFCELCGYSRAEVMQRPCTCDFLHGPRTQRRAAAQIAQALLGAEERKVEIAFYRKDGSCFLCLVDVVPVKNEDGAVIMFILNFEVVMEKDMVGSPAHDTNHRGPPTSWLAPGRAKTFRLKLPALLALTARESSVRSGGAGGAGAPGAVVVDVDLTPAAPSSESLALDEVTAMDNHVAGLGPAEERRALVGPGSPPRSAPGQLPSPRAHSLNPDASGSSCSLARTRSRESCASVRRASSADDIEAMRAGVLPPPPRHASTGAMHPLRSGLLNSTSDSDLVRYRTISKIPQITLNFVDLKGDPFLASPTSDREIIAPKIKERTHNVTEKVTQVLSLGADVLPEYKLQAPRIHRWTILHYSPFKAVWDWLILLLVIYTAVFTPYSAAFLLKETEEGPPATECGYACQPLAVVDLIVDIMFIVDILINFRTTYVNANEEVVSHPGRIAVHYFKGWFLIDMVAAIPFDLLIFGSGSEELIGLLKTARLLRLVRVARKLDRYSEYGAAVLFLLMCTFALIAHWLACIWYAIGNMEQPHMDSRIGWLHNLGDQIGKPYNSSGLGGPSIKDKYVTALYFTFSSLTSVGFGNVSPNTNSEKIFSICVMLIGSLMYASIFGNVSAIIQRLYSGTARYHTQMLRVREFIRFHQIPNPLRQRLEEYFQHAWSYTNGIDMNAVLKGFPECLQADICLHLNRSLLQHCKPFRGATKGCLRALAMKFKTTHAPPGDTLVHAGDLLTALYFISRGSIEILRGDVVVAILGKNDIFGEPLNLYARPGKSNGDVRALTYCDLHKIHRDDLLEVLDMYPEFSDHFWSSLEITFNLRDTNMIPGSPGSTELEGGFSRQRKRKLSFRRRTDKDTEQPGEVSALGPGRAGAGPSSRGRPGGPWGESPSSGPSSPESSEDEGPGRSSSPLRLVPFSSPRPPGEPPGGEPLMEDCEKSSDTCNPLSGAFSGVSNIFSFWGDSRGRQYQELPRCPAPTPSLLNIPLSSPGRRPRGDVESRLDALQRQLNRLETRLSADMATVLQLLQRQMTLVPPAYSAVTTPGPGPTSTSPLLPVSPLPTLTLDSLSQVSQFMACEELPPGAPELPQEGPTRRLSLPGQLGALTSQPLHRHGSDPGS

With `CN[C@@H]1CCN(c2cc(-c3[nH]nc4c3CCC4)nc(N)n2)C1` [7.4], at hERG, at 30 µM the inhibition was 16%. Also, the Kb on human H4 receptor is 6.31 nM.

With `CN[C@@H]1CCN(c2cc(-c3ccn[nH]3)nc(N)n2)C1` [Example 1-1, (R)-4-(3-(methylamino)pyrrolidin-1-yl)-6-(1H-pyrazol-5-yl)pyrimidin-2-amine], the concentration for half-maximal inhibition (IC50) on hERG was no less than 100000 nM. Moreover, the Kb at human H4 receptor was 50.1 nM.

For the compound `CN[C@@H]1CCN(c2cc(-c3ccnn3C)nc(N)n2)C1` [Example 1-2, (R)-4-(1-methyl-1H-pyrazol-5-yl)-6-(3-(methylamino)pyrrolidin-1-yl)pyrimidin-2-amine dihydrochloride], the Kb at human H4 receptor is 794 nM.

In turn, `CN[C@@H]1CCN(c2cc(-c3ccn(C)n3)nc(N)n2)C1` [Example 2-1, (R)-4-(1-methyl-1H-pyrazol-3-yl)-6-(3-(methylamino)pyrrolidin-1-yl)pyrimidin-2-amine] returned a half-maximal inhibitory concentration (IC50) against hERG of no less than 100000 nM. Besides, the Kb at human H4 receptor was 39.8 nM.

Take `CN[C@@H]1CCN(c2cc(-c3ccn(C(F)F)n3)nc(N)n2)C1` [Example 2-2, (R)-4-(1-(difluoromethyl)-1H-pyrazol-3-yl)-6-(3-(methylamino)pyrrolidin-1-yl)pyrimidin-2-amine dihydrochloride]: the inhibition at 30 µM against hERG was 99%. Further, the Kb at human H4 receptor was 50.1 nM.

Take `CN[C@@H]1CCN(c2cc(-c3cc(C)n[nH]3)nc(N)n2)C1` [Example 3-1, (R)-4-(3-methyl-1H-pyrazol-5-yl)-6-(3-(methylamino)pyrrolidin-1-yl)pyrimidin-2-amine]: the inhibition at 30 µM on hERG was less than 1%. Further, on human H4 receptor, the Kb is 7.94 nM.

As to `CN[C@@H]1CCN(c2cc(-c3cc(C4CC4)n[nH]3)nc(N)n2)C1` [Example 3-2, dihydrochloride], the inhibition at 30 µM against hERG was 39%. Moreover, the Kb on human H4 receptor is 100 nM.

Regarding `CN[C@@H]1CCN(c2cc(-c3cc(C(F)F)n[nH]3)nc(N)n2)C1` [Example 3-3, (R)-4-(3-(difluoromethyl)-1H-pyrazol-5-yl)-6-(3-(methylamino)pyrrolidin-1-yl)pyrimidin-2-amine], at human H4 receptor, the Kb is 50.1 nM.

As to `CN[C@@H]1CCN(c2cc(-c3cc(C(F)(F)F)n[nH]3)nc(N)n2)C1` [Example 3-4, (R)-4-(3-(methylamino)pyrrolidin-1-yl)-6-(3-(trifluoromethyl)-1H-pyrazol-5-yl)pyrimidin-2-amine ditrifluoroacetate salt], on hERG, at 30 µM the inhibition was 45%. In addition, the Kb on human H4 receptor is 63.1 nM.

On hERG, `Nc1nc(-c2cc(C(F)(F)F)n[nH]2)cc(N2CC[C@@H](N)C2)n1` [Example 3-5] returned an inhibition at 30 µM of 19%. Moreover, at human H4 receptor, the Kb is 100 nM.

Consider `CCc1cn[nH]c1-c1cc(N2CC[C@@H](NC)C2)nc(N)n1` [Example 4-2, (R)-4-(4-ethyl-1H-pyrazol-5-yl)-6-(3-(methylamino)pyrrolidin-1-yl)pyrimidin-2-amine], for which the inhibition at 30 µM at hERG stood at 25%. The Kb at human H4 receptor was 10 nM.

`CN[C@@H]1CCN(c2cc(-c3[nH]ncc3OC)nc(N)n2)C1` [Example 4-4, (R)-4-(4-methoxy-1H-pyrazol-5-yl)-6-(3-(methylamino)pyrrolidin-1-yl)pyrimidin-2-amine] returned an inhibition at 30 µM against hERG of 14%. The Kb at human H4 receptor was 79.4 nM.

Consider `CN[C@@H]1CCN(c2cc(-c3cc(C)n(C)n3)nc(N)n2)C1` [Example 5-1, diformate], for which the Kb at human H4 receptor is 398 nM.

On to `CN[C@@H]1CCN(c2cc(-c3cc(C)n(C(F)F)n3)nc(N)n2)C1` [Example 5-2], for which the inhibition at 30 µM on hERG worked out at 71%. At human H4 receptor, the Kb is 398 nM.

Consider `CN[C@@H]1CCN(c2cc(-c3nn(C)cc3C)nc(N)n2)C1` [Example 6-1], for which testing at 30 µM against hERG gave an inhibition of 12%. The Kb on human H4 receptor was 20 nM.

`CN[C@@H]1CCN(c2cc(-c3nn(C(F)F)cc3C)nc(N)n2)C1` [Example 6-2] came in with an inhibition at 30 µM on hERG of 94%. Further, the Kb at human H4 receptor is 39.8 nM.

Regarding `CN[C@@H]1CCN(c2cc(-c3[nH]nc(C)c3Cl)nc(N)n2)C1` [Example 7-2], testing at 30 µM on hERG gave an inhibition of 39%. In addition, the Kb on human H4 receptor is 0.251 nM.

Regarding `Cc1n[nH]c(-c2cc(N3CC[C@@H](N)C3)nc(N)n2)c1C` [Example 7-6], on human H4 receptor, the Kb is 398 nM.

On hERG, `Cc1n[nH]c(-c2cc(N3CC[C@@H](N)C3)nc(N)n2)c1Cl` [Example 7-7] registered an inhibition at 30 µM of 30%. The Kb on human H4 receptor was 2 nM.

For `CCc1n[nH]c(-c2cc(N3CC[C@@H](N)C3)nc(N)n2)c1C` [Example 7-8], the Kb on human H4 receptor was 126 nM.

As for `CN[C@@H]1CCN(c2cc(-c3cn[nH]c3)nc(N)n2)C1` [Example 8-1], the IC50 against hERG is no less than 100000 nM. In addition, the Kb on human H4 receptor was 100 nM.

Take `CCn1cc(-c2cc(N3CC[C@@H](NC)C3)nc(N)n2)cn1` [Example 8-3, dihydrochloride]: 30 µM produced 12% inhibition at hERG. At human H4 receptor, the Kb was 39.8 nM.

The compound `CN[C@@H]1CCN(c2cc(-c3cnn(C4CCC4)c3)nc(N)n2)C1` [Example 8-5] showed an inhibition at 30 µM at hERG of 77%. Besides, the Kb on human H4 receptor was 251 nM.

On hERG, `CN[C@@H]1CCN(c2cc(-c3cnn(C(F)F)c3)nc(N)n2)C1` [Example 8-6] gave a half-maximal inhibitory concentration (IC50) of 6310 nM. In addition, the Kb on human H4 receptor is 20 nM.

With `CN[C@@H]1CCN(c2cc(-c3cnn(CC(F)(F)F)c3)nc(N)n2)C1` [Example 8-8, dihydrochloride], 30 µM produced 44% inhibition on hERG. Further, the Kb on human H4 receptor was 398 nM.

`CN[C@@H]1CCN(c2cc(-c3cnn(CCO)c3)nc(N)n2)C1` [Example 8-9]: the Kb at human H4 receptor is 631 nM.

`CN[C@@H]1CCN(c2cc(-c3cnn(C4COC4)c3)nc(N)n2)C1` [Example 8-11]: the Kb at human H4 receptor was 501 nM.

Take `CN[C@@H]1CCN(c2cc(-c3cnn(CCC#N)c3)nc(N)n2)C1` [Example 8-12]: the Kb on human H4 receptor is 794 nM.

For `CN[C@@H]1CCN(c2cc(-c3cnn(CC#N)c3)nc(N)n2)C1` [Example 8-13], on human H4 receptor, the Kb is 200 nM.

As to `CCOC(=O)N1CCCC(n2cc(-c3cc(N4CC[C@@H](NC)C4)nc(N)n3)cn2)C1` (some centres unmarked) [Example 8-14], at human H4 receptor, the Kb was 794 nM.

In the case of `Nc1nc(-c2cnn(C(F)(F)F)c2)cc(N2CC[C@@H](N)C2)n1` [Example 8-15, dihydrochloride], on hERG, the IC50 was no less than 100000 nM and the inhibition at 30 µM stood at 44%. At human H4 receptor, the Kb is 2.51 nM.

On to `CCn1cc(-c2cc(N3CC[C@@H](N)C3)nc(N)n2)cn1` [Example 8-17, dihydrochloride], for which, on hERG, the inhibition at 30 µM stood at 10%. Besides, on human H4 receptor, the Kb is 50.1 nM.

Regarding `Nc1nc(-c2cnn(CC(F)(F)F)c2)cc(N2CC[C@@H](N)C2)n1` [Example 8-18, dihydrochloride], the Kb on human H4 receptor is 501 nM.

In turn, `CCc1[nH]ncc1-c1cc(N2CC[C@@H](NC)C2)nc(N)n1` [Example 9-2] displayed an inhibition at 30 µM against hERG of 12%. Further, the Kb on human H4 receptor is 12.6 nM.

For the compound `CN[C@@H]1CCN(c2cc(-c3cn[nH]c3C3CC3)nc(N)n2)C1.O=C(O)C(F)(F)F.O=C(O)C(F)(F)F` [Example 9-4], the “hERG % inhibition at 30 μM” value on hERG (single concentration 30 μM, QPatch) is given as 17%. The “Human H4 CAMP fpKb” value at human H4 receptor was 7.6.

Take `CN[C@@H]1CCN(c2cc(-c3cn[nH]c3C(F)F)nc(N)n2)C1` [Example 9-5]: on human H4 receptor, the Kb is 39.8 nM.

`CN[C@@H]1CCN(c2cc(-c3cn(C)nc3C3CC3)nc(N)n2)C1` [Example 11-3, dihydrochloride] gave an inhibition at 30 µM at hERG of 34%. Moreover, the Kb on human H4 receptor was 501 nM.

In turn, `CN[C@@H]1CCN(c2cc(-c3cn(C)nc3C(F)(F)F)nc(N)n2)C1` [Example 11-4, dihydrochloride] showed an inhibition at 30 µM against hERG of 46%. At human H4 receptor, the Kb was 316 nM.

As for `CN[C@@H]1CCN(c2cc(-c3cn(C)nc3C#N)nc(N)n2)C1` [Example 11-5], at human H4 receptor, the Kb is 794 nM.

`CN[C@@H]1CCN(c2cc(-c3cnn(C)c3C#N)nc(N)n2)C1` [Example 12-2] yielded an inhibition at 30 µM on hERG of 14%. Further, on human H4 receptor, the Kb was 251 nM.

In turn, `CN[C@@H]1CCN(c2cc(-c3cnn4c3CCC4)nc(N)n2)C1` [Example 12-4, dihydrochloride] had an inhibition at 30 µM on hERG of 1%. Also, the Kb at human H4 receptor was 158 nM.

`CCc1cc(-c2cc(N3CC[C@@H](NC)C3)nc(N)n2)[nH]n1` [Example 15-1] came in with an inhibition at 30 µM against hERG of 68%. For the same compound, on human H4 receptor, the Kb is 3.16 nM.

`CN[C@H]1CCN(c2cc(-c3[nH]ncc3C)nc(N)n2)C1` [Example 16-1, ditrifluoroacetate] came in with an inhibition at 30 µM at hERG of 32%. On human H4 receptor, the Kb was 31.6 nM.

Consider `CNC1(C)CCN(c2cc(-c3[nH]ncc3C)nc(N)n2)C1` (centres unmarked) [Example 16-2, ditrifluoroacetate], for which the inhibition at 30 µM at hERG came out at 9%. Moreover, on human H4 receptor, the Kb was 50.1 nM.

As to `CNC1CN(c2cc(-c3[nH]ncc3C)nc(N)n2)C1` [Example 16-3, ditrifluoroacetate], at human H4 receptor, the Kb is 7.94 nM.

For the compound `Cc1cn[nH]c1-c1cc(N2CC(N)C2)nc(N)n1` [Example 16-4, ditrifluoroacetate], on human H4 receptor, the Kb is 398 nM.

As for `CNC1(C)CN(c2cc(-c3[nH]ncc3C)nc(N)n2)C1` [Example 16-5, ditrifluoroacetate], the Kb on human H4 receptor was 20 nM.

`Cc1cn[nH]c1-c1cc(N2CC3CCNC3C2)nc(N)n1` (centres unmarked) [Example 16-6]: the Kb at human H4 receptor was 631 nM.
